≈ marks a conversion by molar mass, not a printed value. Like-named read-outs stand apart in the source and are kept apart here.
What was measured:
Assay in all cases: In vitro antibacterial activity, agar disc dilution method
Format in all cases: cell-based
M. euteus ATCC 9341 = details: read-out: minimum growth inhibitory concentration (MIC)
Description: (§1) An in vitro antibacterial activity was measured by an agar disc dilution method.
(§2) Varied test bacteria were cultivated overnight in triptophane-soybroth. A Mueller Hinton agar containing the compound of this invention in varied concentrations was streaked with one platinum loopful of each of the bacteria (number of living cells 10^6/ml).

E. coli K12C600 = details: Escherichia coli, read-out: minimum growth inhibitory concentration (MIC)
Description: as §1, §2

S. aureus Terajima = details: Staphylococcus aureus, read-out: minimum growth inhibitory concentration (MIC)
Description: as §1, §2

E. cloacae 963 = details: read-out: minimum growth inhibitory concentration (MIC)
Description: as §1, §2

S. pyogenes Cook = details: Streptococcus pyogenes, read-out: minimum growth inhibitory concentration (MIC)
Description: as §1, §2

P. vulgalis OX-19 = details: read-out: minimum growth inhibitory concentration (MIC)
Description: as §1, §2

S. marcescens I AM 1184 = details: Serratia marcescens, read-out: minimum growth inhibitory concentration (MIC)
Description: as §1, §2

S. typhic 901 = details: Mueller Hinton agar, 10^6/ml, 37°C for 16 hours, read-out: minimum growth inhibitory concentration (MIC)
Description: as §1, §2

B. subtilis ATCC 6633 = details: Bacillus subtilis, read-out: minimum growth inhibitory concentration (MIC)
Description: as §1, §2

P. rettgeric IFO3850 = details: read-out: minimum growth inhibitory concentration (MIC)
Description: as §1, §2

K. pneumoniae PC I 602 = details: Klebsiella pneumoniae, read-out: minimum growth inhibitory concentration (MIC)
Description: as §1, §2

P. morganii IFO 3445 = details: Morganella morganii, read-out: minimum growth inhibitory concentration (MIC)
Description: as §1, §2

S. enteritidis G14 = details: Salmonella enterica, read-out: minimum growth inhibitory concentration (MIC)
Description: as §1, §2

P. aeruginosa NCTC 1049 = details: Pseudomonas aeruginosa, read-out: minimum growth inhibitory concentration (MIC)
Description: as §1, §2

[1] = M. euteus ATCC 9341, Mueller Hinton agar, 10^6/ml, 37°C for 16 hours
[2] = E. coli K12C600, Mueller Hinton agar, 10^6/ml, 37°C for 16 hours
[3] = S. aureus Terajima, Mueller Hinton agar, 10^6/ml, 37°C for 16 hours
[4] = Enterobacter cloacae, E. cloacae 963, Mueller Hinton agar, 10^6/ml, 37°C for 16 hours
[5] = S. pyogenes Cook, Mueller Hinton agar, 10^6/ml, 37°C for 16 hours
[6] = P. vulgalis OX-19, Mueller Hinton agar, 10^6/ml, 37°C for 16 hours
[7] = IAM1184, S. marcescens I AM 1184, Mueller Hinton agar, 10^6/ml, 37°C for 16 hours
[8] = ATCC6633, B. subtilis ATCC 6633, Mueller Hinton agar, 10^6/ml, 37°C for 16 hours
[9] = P. rettgeric IFO3850, Mueller Hinton agar, 10^6/ml, 37°C for 16 hours
[10] = PCI602, K. pneumoniae PC I 602, Mueller Hinton agar, 10^6/ml, 37°C for 16 hours
[11] = IFO3445, P. morganii IFO 3445, Mueller Hinton agar, 10^6/ml, 37°C for 16 hours
[12] = S. enteritidis G14, Mueller Hinton agar, 10^6/ml, 37°C for 16 hours
[13] = NCTC1049, P. aeruginosa NCTC 1049, Mueller Hinton agar, 10^6/ml, 37°C for 16 hours

In the case of CC(C)(O/N=C(\C(=O)N[C@@H]1C(=O)N2C(C(=O)[O-])=C(C[n+]3ccccc3)CS[C@H]12)c1csc(N)n1)C(=O)O [CAZ, Ceftazidime, reference compound], the MIC (M. euteus ATCC 9341; 16 h) is reported as 1.6 mg/L (≈ 2.93 µM), the MIC (E. coli K12C600; K12C600, 16 h) is reported as 0.2 mg/L (≈ 0.366 µM) and the MIC (S. aureus Terajima; 16 h) is reported as 3.1 mg/L (≈ 5.67 µM). For the same molecule, the MIC (E. cloacae 963; Enterobacter cloacae, 963, 16 h) was 0.1 mg/L (≈ 0.183 µM), the MIC (S. pyogenes Cook; 16 h) was 1.6 mg/L (≈ 2.93 µM) and the MIC (P. vulgalis OX-19; 16 h) was 0.01 mg/L (≈ 0.0183 µM). It also gave an MIC (S. marcescens I AM 1184; IAM1184, 16 h) of 0.03 mg/L (≈ 0.0549 µM), an MIC (S. typhic 901) of 0.1 mg/L (≈ 0.183 µM) and an MIC (B. subtilis ATCC 6633; ATCC6633, 16 h) of 3.1 mg/L (≈ 5.67 µM). For the same molecule, the MIC (P. rettgeric IFO3850; 16 h) was 0.01 mg/L (≈ 0.0183 µM), the MIC (K. pneumoniae PC I 602; PCI602, 16 h) was 0.1 mg/L (≈ 0.183 µM) and the MIC (P. morganii IFO 3445; IFO3445, 16 h) was 0.01 mg/L (≈ 0.0183 µM). It also gave an MIC (S. enteritidis G14; ENTERITIDIS, 16 h) of 0.1 mg/L (≈ 0.183 µM) and an MIC (P. aeruginosa NCTC 1049; NCTC1049, 16 h) of 0.8 mg/L (≈ 1.46 µM).

With CC(C)(O/N=C(\C(=O)N[C@@H]1C(=O)N2C(C(=O)[O-])=C(C[n+]3ccc4cc(O)c(O)cc4c3)CS[C@H]12)c1csc(N)n1)C(=O)O [Compound A, (6R,7R)-7-[(Z)-2-(2-amino-l,3-thiazol-4-yl)-2-(2-carboxypropyl-2-yloxyimino)acetamide]-3-(6,7-dihydroxy-2-isoquinolinium)methyl-3-cephem-4-carboxylate, reference compound] the MIC (M. euteus ATCC 9341; [1]) was 0.2 mg/L (≈ 0.318 µM), the MIC (E. coli K12C600; [2]) was under 0.01 mg/L and the MIC (S. aureus Terajima; [3]) was 6.2 mg/L (≈ 9.86 µM). The MIC (E. cloacae 963; [4]) was under 0.01 mg/L, the MIC (S. pyogenes Cook; [5]) was 1.6 mg/L (≈ 2.55 µM) and the MIC (P. vulgalis OX-19; [6]) was under 0.01 mg/L. For the same molecule, the MIC (S. marcescens I AM 1184; [7]) was under 0.01 mg/L, the MIC (S. typhic 901) was under 0.01 mg/L and the MIC (B. subtilis ATCC 6633; [8]) was 0.4 mg/L (≈ 0.636 µM). The MIC (P. rettgeric IFO3850; [9]) was under 0.01 mg/L, the MIC (K. pneumoniae PC I 602; [10]) was under 0.01 mg/L and the MIC (P. morganii IFO 3445; [11]) was under 0.01 mg/L. It also gave an MIC (S. enteritidis G14; [12]) of under 0.01 mg/L and an MIC (P. aeruginosa NCTC 1049; [13]) of 0.02 mg/L (≈ 0.0318 µM).

In the case of Nc1nc(/C(=N/Oc2ccccc2)C(=O)N[C@@H]2C(=O)N3C(C(=O)[O-])=C(C[n+]4ccc5cc(O)c(O)cc5c4)CS[C@H]23)cs1 [Compound I, (6R,7R)-7-[(Z)-2-(2-amino-1,3-thiazol-4-yl)-2-phenoxy-iminoacetamide]-3-(6,7-dihydroxy-2-isoquinolinium)methyl-3-cephem-4-carboxylate], the MIC (M. euteus ATCC 9341; [1]) is reported as 0.1 mg/L (≈ 0.162 µM), the MIC (E. coli K12C600; [2]) is reported as under 0.01 mg/L and the MIC (S. aureus Terajima; [3]) is reported as 0.8 mg/L (≈ 1.29 µM). For the same molecule, the MIC (E. cloacae 963; [4]) was under 0.01 mg/L, the MIC (S. pyogenes Cook; [5]) was 0.2 mg/L (≈ 0.323 µM) and the MIC (P. vulgalis OX-19; [6]) was under 0.01 mg/L. It also gave an MIC (S. marcescens I AM 1184; [7]) of under 0.01 mg/L, an MIC (S. typhic 901) of under 0.01 mg/L and an MIC (B. subtilis ATCC 6633; [8]) of 0.1 mg/L (≈ 0.162 µM). For the same molecule, the MIC (P. rettgeric IFO3850; [9]) was under 0.01 mg/L, the MIC (K. pneumoniae PC I 602; [10]) was under 0.01 mg/L and the MIC (P. morganii IFO 3445; [11]) was under 0.01 mg/L. For the same molecule, the MIC (S. enteritidis G14; [12]) was under 0.01 mg/L and the MIC (P. aeruginosa NCTC 1049; [13]) was 0.1 mg/L (≈ 0.162 µM).

Work on Nc1nc(/C(=N/Oc2ccccc2Cl)C(=O)N[C@@H]2C(=O)N3C(C(=O)[O-])=C(C[n+]4ccc5cc(O)c(O)cc5c4)CS[C@H]23)cs1 [Compound II, (6R,7R)-7-[(Z)-2-(2-amino-1,3-thiazol-4-yl)-2-(o-chlorophenoxyimino)-acetamide]-3-(6,7-dihydroxy-2-isoquinolinium)methyl-3-cephem-4-carboxylate] yielded an MIC (M. euteus ATCC 9341; [1]) of 0.8 mg/L (≈ 1.22 µM), an MIC (E. coli K12C600; [2]) of under 0.01 mg/L and an MIC (S. aureus Terajima; [3]) of 0.2 mg/L (≈ 0.306 µM). It also gave an MIC (E. cloacae 963; [4]) of under 0.01 mg/L, an MIC (S. pyogenes Cook; [5]) of 0.2 mg/L (≈ 0.306 µM) and an MIC (P. vulgalis OX-19; [6]) of under 0.01 mg/L. The MIC (S. marcescens I AM 1184; [7]) was under 0.01 mg/L, the MIC (S. typhic 901) was under 0.01 mg/L and the MIC (B. subtilis ATCC 6633; [8]) was 1.6 mg/L (≈ 2.45 µM). It also gave an MIC (P. rettgeric IFO3850; [9]) of under 0.01 mg/L, an MIC (K. pneumoniae PC I 602; [10]) of under 0.01 mg/L and an MIC (P. morganii IFO 3445; [11]) of under 0.01 mg/L. For the same molecule, the MIC (S. enteritidis G14; [12]) was under 0.01 mg/L and the MIC (P. aeruginosa NCTC 1049; [13]) was 0.8 mg/L (≈ 1.22 µM).

Nc1nc(/C(=N/Oc2ccc(Cl)cc2)C(=O)N[C@@H]2C(=O)N3C(C(=O)[O-])=C(C[n+]4ccc5cc(O)c(O)cc5c4)CS[C@H]23)cs1 [Compound III] gave an MIC (M. euteus ATCC 9341; [1]) of 0.2 mg/L (≈ 0.306 µM), an MIC (E. coli K12C600; [2]) of under 0.01 mg/L and an MIC (S. aureus Terajima; [3]) of 0.8 mg/L (≈ 1.22 µM). For the same molecule, the MIC (E. cloacae 963; [4]) was 0.03 mg/L (≈ 0.0459 µM), the MIC (S. pyogenes Cook; [5]) was 0.1 mg/L (≈ 0.153 µM) and the MIC (P. vulgalis OX-19; [6]) was under 0.01 mg/L. The MIC (S. marcescens I AM 1184; [7]) was under 0.01 mg/L, the MIC (S. typhic 901) was under 0.01 mg/L and the MIC (B. subtilis ATCC 6633; [8]) was 0.4 mg/L (≈ 0.612 µM). The MIC (P. rettgeric IFO3850; [9]) was under 0.01 mg/L, the MIC (K. pneumoniae PC I 602; [10]) was under 0.01 mg/L and the MIC (P. morganii IFO 3445; [11]) was 0.01 mg/L (≈ 0.0153 µM). The MIC (S. enteritidis G14; [12]) was under 0.01 mg/L and the MIC (P. aeruginosa NCTC 1049; [13]) was 0.8 mg/L (≈ 1.22 µM).
